# Laboratory results as given in US20120107423A1, “Methods of Using Inhaled Nitric Oxide Gas for Treatment of Acute Respiratory Distress Syndrome” (INO Therapeutics LLC, priority 2010, published 2012).
# Legend:
# [1] = tested on: patients with moderately severe acute lung injury (ALI) / ARDS survivors; test: Pulmonary function tests at 6 months post-treatment in ARDS survivors (iNO 5 ppm vs placebo); type: in vivo, human
# Experimental: (§1) A large-scale, randomized, blinded, placebo-controlled study was carried out in the Intensive Care Units (ICUs) of 46 US hospitals to evaluate the efficacy of low-dose (5 ppm) iNO in 385 patients with moderately severe Acute Lung Injury (ALI). The primary endpoint of this study was number of days alive and off assisted breathing.
# (§2) Patients had moderately severe acute lung injury (ALI), defined by a modification of American-European Consensus Conference criteria (PaO2/inspired oxygen concentration [FiO2] ratio of ≦250 mm Hg), due to causes other than severe sepsis. Patients with evidence of non-pulmonary system failure at the time of randomization and sepsis-induced ARDS were excluded. Patients were also excluded if they had sustained hypotension requiring vasopressor support, hemodynamic profiles supporting severe sepsis, severe head injury, severe burns, or evidence of other significant organ system dysfunction at baseline.
# (§3) Patients were randomly assigned to receive either inhaled placebo gas (nitrogen) or 5 ppm of iNO (INO Therapeutics Inc., Port Allen, La.). All patients, healthcare professionals, and investigators were blinded to the assigned treatment. Inhaled NO was administered via INOvent® delivery system (Datex-Ohmeda, Madison, Wis.) that blended treatment gas (nitrogen or NO at 100-ppm balance nitrogen) 1:20 with ventilator gases to achieve a target ppm value in the inspiratory limb of the ventilator.
# (§4) All patients using the iNO delivery system received mechanical ventilatory support. Treatment continued with active or placebo gas until one of the following criteria were met: [1] end of trial (28 days); [2] death; or [3] adequate oxygenation (arterial oxygen saturation by pulse oximetry [SpO2]≧92% or PaO2 of ≧63 mm Hg) without treatment gas at ventilator settings of FiO2≦0.4 and positive end-expiratory pressure (PEEP) of ≦5 cm H2O. Decreases in treatment gas continued in 20% decrements (titrated down by 1 ppm for inhaled NO) every 30 minutes until either the treatment gas concentration reached 0% or oxygenation criteria were not satisfied. If oxygenation criteria were not met, treatment gas concentration was titrated up until they were again achieved. Increments of upward titration were determined by the clinician, based on degree of arterial desaturation.
# Pulmonary function testing (PFT) at 6 months post-treatment was required in both iNO- and placebo-treated patients as part of the original study design. PFTs included forced expiratory volume in 1 second (FEV1), FEV1% predicted, forced vital capacity (FVC), FVC % predicted, the FEV1/FVC ratio, FEV1/FVC ratio % predicted, forced expiratory flow (FEF) from 25% to 75% of FVC (FEF25-75%), FEF25-75%% predicted, functional residual capacity (FRC), FRC % predicted, total lung capacity (TLC), TLC % predicted, CO diffusion, and CO diffusion % predicted.
# (§5) All between-group differences in PFT results were evaluated using the Wilcoxon rank sum test. Between-group differences in baseline clinical and demographic characteristics were assessed with the Fisher's exact test and the chi-square test for categorical variables and with the Wilcoxon rank sum test for continuous variables. Baseline oxygenation and respiratory/oxygenation parameters in the two groups were compared using Wilcoxon rank sum tests. The areas under the curve (AUCs) of FiO2, PEEP, and PaO2/FiO2 ratio were calculated using the trapezoidal rule. The null hypothesis that the respective AUCs were normally distributed was rejected employing the Shapiro-Wilk test. A Wilcoxon rank sum test was utilized to assess the differences in each median AUC between treatment groups. A p value <0.05 was considered significant.
# A total of 92 of the 302 survivors (30%) were capable of and participated in the 6-month follow-up pulmonary function analysis (iNO, n=51; placebo, n=41). The balance of surviving subjects was lost to follow-up for reasons unknown, and PFT data are not available. […]
# [2] = tested on: patients with moderately severe acute lung injury (ALI) / ARDS survivors; test: Respiratory parameters during mechanical ventilation: cumulative exposure (AUC) over study gas administration; type: in vivo, human; conditions: for Duration of exposure: PaO2/FiO2 ratio: during study gas administration / length of mechanical ventilation
# Experimental: Baseline oxygenation measures included PaO2, arterial partial pressure of CO2 (PaCO2), SpO2, FiO2, PEEP, PaO2/FiO2 ratio, […], tidal volume, and mean airway pressure. Respiratory parameters (FiO2, PEEP, and PaO2/FiO2 ratio) were recorded on case report forms every 12 hours during mechanical ventilation.
# as §5
# [3] = tested on: patients with moderately severe Acute Lung Injury (ALI); test: Safety results, adverse events in the initial 28-day study period; type: in vivo, human; conditions: iNO 5 ppm
# Experimental: as §1
# Safety results for the initial 28-day study period have been reported and are summarized briefly here. A total of 630 adverse events (AEs) were reported for patients treated with iNO versus 666 events for those who received placebo. Respiratory system AEs occurred in 51% versus 61% of patients receiving iNO and placebo, respectively, primarily due to higher frequencies of pneumonia, pneumothorax, and apnea in the placebo group.
# [4] = tested on: patients with moderately severe Acute Lung Injury (ALI); test: Randomized, blinded, placebo-controlled 28-day study of low-dose (5 ppm) iNO, intent-to-treat analysis; type: in vivo, human
# Experimental: as §1, §2, §3, §4
# [5] = at STP; cited from earlier work
# [6] = tested on: experimental animals and ARDS patients; conditions: cited from earlier work
# ARDS patients = conditions: cited from earlier work
# [7] = experimental animals and ARDS patients
structure (smiles),measurement,setting,value
"[N]=O [Inhaled NO, nitric oxide]","FRC, % predicted",[1]; mean,93.98 % predicted
same,TLC,[1]; mean,5.54 L
same,"TLC, % predicted",[1]; mean,93.33 % predicted
same,CO diffusion,[1]; mean (SD),18.25 (6.77) mL/min/mm Hg
same,"CO diffusion, % predicted",[1]; mean (SD),71.02 (20.79) % predicted
same,"FEF25/75%, % predicted",[1]; mean (SD),72.50 (27.71) % predicted
same,"FEV1, % predicted",[1]; mean (SD),80.23 (21.21) % predicted
same,FEV1/FVC,[1]; mean (SD),77.45 (15.19) %
same,"FEV1/FVC, % predicted",[1]; mean (SD),96.14 (13.79) % predicted
same,FRC,[1]; mean (SD),3.00 (0.94) L
same,FVC,[1]; mean (SD),3.36 (1.09) L
same,"FVC, % predicted",[1]; mean (SD),83.78 (19.38) % predicted
same,FEV1,"[1]; mean (SD), iNO 5 ppm up to 28 days",2.64 (0.91) L
same,"FEV1, % predicted","[1]; mean (SD), listed as iNO",significantly greater
same,"FEV1/FVC, % predicted","[1]; mean (SD), listed as iNO",significantly greater
same,"FVC, % predicted","[1]; mean (SD), listed as iNO",significantly greater
same,TLC,"[1]; mean, listed as iNO",significantly greater
same,"TLC, % predicted","[1]; mean, listed as iNO",significantly greater
same,Duration of exposure: PaO2/FiO2 ratio,[2]; mean ± SD,262 ± 407
same,Duration of exposure: PaO2/FiO2 ratio,"[2]; mean ± SD, listed as iNO",2637±1729
same,Duration of exposure: FiO2,"[2]; during study gas administration, mean ± SD, N = 51",6.34 ± 4.5
same,"Cumulative exposure to FiO2, PEEP and PaO2/FiO2 ratio, versus placebo",[2]; over the length of mechanical ventilation,less cumulative exposure to all three variables
same,"Duration of exposure, total FiO2","[2]; over the length of mechanical ventilation, mean ± SD",6.3 ± 4.5 days
same,"Aggregate per-patient changes from baseline in supplemental oxygen, PEEP, or PaO2/FiO2 ratio, versus placebo",[2]; through day 28 (FIG. 2a-c),no significant differences between groups
same,Patients with respiratory system AEs,[3],51%
same,Total adverse events (AEs) reported,[3],630 events
same,Partial pressure of arterial oxygen (PaO2),"[4]; initial 24 hours of treatment, p<0.05, resolved by 48 hours",significant increase
same,"Days alive and meeting oxygenation criteria for extubation, benefit versus control",[4]; intent-to-treat,no significant benefit
same,"Mortality, benefit versus control (nitrogen gas)","[4]; intent-to-treat, 5 ppm iNO, 385 patients",no significant benefit
same,"Days alive and off assisted breathing, benefit versus control","[4]; intent-to-treat, primary endpoint",no significant benefit
same,Solubility in water,[5],about 2 mM
same,Formation of platelet-leukocyte aggregates,[6]; correlated with NO-dependent inhibition of platelet P-selectin expression,significantly inhibiting
same,Pulmonary concentrations of interleukin (IL)-8,[6]; [7],significantly decreases
same,Pulmonary concentrations of neutrophils,[6]; [7],significantly decreases
same,H2O2 production by polymorphonuclear leukocytes,ARDS patients,significantly decrease
same,IL-6 concentration in BAL fluid,ARDS patients,decreased
same,IL-8 concentration in BAL fluid,ARDS patients,decreased
same,β2-integrin CD11b/CD18 expression by polymorphonuclear leukocytes,ARDS patients,significantly decrease
